Test results published in the NIST ThermoML archive (doi:10.1021/acs.jced.9b00074).

Assay: xn = mol fraction of the nth substance listed
Settings: 100 kPa, Liquid; for viscosity: Falling or rolling sphere viscometry; for mass density: Vibrating tube method

CC12CC3CC(C1)CC(C)(C3)C2 [1,3-dimethyladamantane] + OC1CCCC1
Settings	mass density [kg/m3]	viscosity [mPa·s]
293.15 K, x2 = 0.0963	903.9	3.868
293.15 K, x2 = 0.1973	906.97	4.123
293.15 K, x2 = 0.3101	910.8	4.531
293.15 K, x2 = 0.4019	914.34	4.967
293.15 K, x2 = 0.4995	918.49	5.61
293.15 K, x2 = 0.5999	923.27	6.396
293.15 K, x2 = 0.6997	928.58	7.57
293.15 K, x2 = 0.7976	934.17	8.863
293.15 K, x2 = 0.9003	940.6	10.32
298.15 K, x2 = 0.0963	900.22	3.42
298.15 K, x2 = 0.1973	903.23	3.627
298.15 K, x2 = 0.3101	907	3.953
298.15 K, x2 = 0.4019	910.49	4.3
298.15 K, x2 = 0.4995	914.58	4.805
298.15 K, x2 = 0.5999	919.31	5.428
298.15 K, x2 = 0.6997	924.57	6.304
298.15 K, x2 = 0.7976	930.15	7.3
298.15 K, x2 = 0.9003	936.59	8.417
303.15 K, x2 = 0.0963	896.53	3.048
303.15 K, x2 = 0.1973	899.47	3.212
303.15 K, x2 = 0.3101	903.18	3.477
303.15 K, x2 = 0.4019	906.62	3.756
303.15 K, x2 = 0.4995	910.65	4.154
303.15 K, x2 = 0.5999	915.31	4.643
303.15 K, x2 = 0.6997	920.53	5.319
303.15 K, x2 = 0.7976	926.1	6.092
303.15 K, x2 = 0.9003	932.59	6.972
308.15 K, x2 = 0.0963	892.84	2.729
308.15 K, x2 = 0.1973	895.7	2.863
308.15 K, x2 = 0.3101	899.33	3.076
308.15 K, x2 = 0.4019	902.72	3.302
308.15 K, x2 = 0.4995	906.7	3.618
308.15 K, x2 = 0.5999	911.29	4.007
308.15 K, x2 = 0.6997	916.45	4.532
308.15 K, x2 = 0.7976	922.01	5.135
308.15 K, x2 = 0.9003	928.43	5.829
313.15 K, x2 = 0.0963	889.12	2.457
313.15 K, x2 = 0.1973	891.91	2.565
313.15 K, x2 = 0.3101	895.47	2.736
313.15 K, x2 = 0.4019	898.8	2.919
313.15 K, x2 = 0.4995	902.71	3.174
313.15 K, x2 = 0.5999	907.24	3.484
313.15 K, x2 = 0.6997	912.35	3.891
313.15 K, x2 = 0.7976	917.88	4.365
313.15 K, x2 = 0.9003	924.29	4.915
318.15 K, x2 = 0.0963	885.4	2.222
318.15 K, x2 = 0.1973	888.1	2.307
318.15 K, x2 = 0.3101	891.59	2.447
318.15 K, x2 = 0.4019	894.85	2.595
318.15 K, x2 = 0.4995	898.7	2.801
318.15 K, x2 = 0.5999	903.16	3.048
318.15 K, x2 = 0.6997	908.21	3.368
318.15 K, x2 = 0.7976	913.7	3.742
318.15 K, x2 = 0.9003	920.09	4.179
323.15 K, x2 = 0.0963	881.66	2.018
323.15 K, x2 = 0.1973	884.27	2.083
323.15 K, x2 = 0.3101	887.67	2.199
323.15 K, x2 = 0.4019	890.88	2.32
323.15 K, x2 = 0.4995	894.66	2.485
323.15 K, x2 = 0.5999	899.04	2.681
323.15 K, x2 = 0.6997	904.03	2.935
323.15 K, x2 = 0.7976	909.47	3.234
323.15 K, x2 = 0.9003	915.84	3.582
328.15 K, x2 = 0.0963	877.91	1.841
328.15 K, x2 = 0.1973	880.42	1.893
328.15 K, x2 = 0.3101	883.74	1.984
328.15 K, x2 = 0.4019	886.87	2.082
328.15 K, x2 = 0.4995	890.58	2.217
328.15 K, x2 = 0.5999	894.89	2.376
328.15 K, x2 = 0.6997	899.81	2.576
328.15 K, x2 = 0.7976	905.2	2.814
328.15 K, x2 = 0.9003	911.54	3.093
333.15 K, x2 = 0.0963	874.14	1.686
333.15 K, x2 = 0.1973	876.55	1.724
333.15 K, x2 = 0.3101	879.77	1.797
333.15 K, x2 = 0.4019	882.83	1.877
333.15 K, x2 = 0.4995	886.46	1.987
333.15 K, x2 = 0.5999	890.7	2.116
333.15 K, x2 = 0.6997	895.55	2.275
333.15 K, x2 = 0.7976	900.88	2.469
333.15 K, x2 = 0.9003	907.18	2.689

OC1CCCC1 [cyclopentanol] + C1C[C@@H]2[C@H]3CC[C@H](C3)[C@@H]2C1
Settings	mass density [kg/m3]	viscosity [mPa·s]
293.15 K, x1 = 0.101	935.59	3.091
293.15 K, x1 = 0.201	935.84	3.26
293.15 K, x1 = 0.296	936.28	3.471
293.15 K, x1 = 0.3962	937.08	3.794
293.15 K, x1 = 0.5016	938.1	4.304
293.15 K, x1 = 0.6017	939.39	5.009
293.15 K, x1 = 0.7011	940.96	5.976
293.15 K, x1 = 0.7968	942.64	7.24
293.15 K, x1 = 0.9005	944.8	9.125
298.15 K, x1 = 0.101	931.59	2.829
298.15 K, x1 = 0.201	931.81	2.917
298.15 K, x1 = 0.296	932.23	3.093
298.15 K, x1 = 0.3962	932.99	3.355
298.15 K, x1 = 0.5016	934	3.762
298.15 K, x1 = 0.6017	935.27	4.32
298.15 K, x1 = 0.7011	936.86	5.083
298.15 K, x1 = 0.7968	938.57	6.076
298.15 K, x1 = 0.9005	940.78	7.555
303.15 K, x1 = 0.101	927.56	2.564
303.15 K, x1 = 0.201	927.75	2.623
303.15 K, x1 = 0.296	928.14	2.774
303.15 K, x1 = 0.3962	928.88	2.987
303.15 K, x1 = 0.5016	929.87	3.316
303.15 K, x1 = 0.6017	931.12	3.761
303.15 K, x1 = 0.7011	932.71	4.367
303.15 K, x1 = 0.7968	934.45	5.154
303.15 K, x1 = 0.9005	936.7	6.316
308.15 K, x1 = 0.101	923.52	2.329
308.15 K, x1 = 0.201	923.67	2.376
308.15 K, x1 = 0.296	924.03	2.499
308.15 K, x1 = 0.3962	924.74	2.674
308.15 K, x1 = 0.5016	925.71	2.941
308.15 K, x1 = 0.6017	926.94	3.298
308.15 K, x1 = 0.7011	928.53	3.78
308.15 K, x1 = 0.7968	930.28	4.407
308.15 K, x1 = 0.9005	932.57	5.324
313.15 K, x1 = 0.101	919.47	2.122
313.15 K, x1 = 0.201	919.57	2.156
313.15 K, x1 = 0.296	919.9	2.261
313.15 K, x1 = 0.3962	920.57	2.404
313.15 K, x1 = 0.5016	921.52	2.62
313.15 K, x1 = 0.6017	922.73	2.908
313.15 K, x1 = 0.7011	924.31	3.296
313.15 K, x1 = 0.7968	926.07	3.796
313.15 K, x1 = 0.9005	928.4	4.527
318.15 K, x1 = 0.101	915.4	1.94
318.15 K, x1 = 0.201	915.45	1.965
318.15 K, x1 = 0.296	915.74	2.053
318.15 K, x1 = 0.3962	916.37	2.171
318.15 K, x1 = 0.5016	917.29	2.348
318.15 K, x1 = 0.6017	918.48	2.58
318.15 K, x1 = 0.7011	920.05	2.893
318.15 K, x1 = 0.7968	921.82	3.293
318.15 K, x1 = 0.9005	924.18	3.878
323.15 K, x1 = 0.101	911.31	1.779
323.15 K, x1 = 0.201	911.3	1.799
323.15 K, x1 = 0.296	911.55	1.871
323.15 K, x1 = 0.3962	912.15	1.968
323.15 K, x1 = 0.5016	913.03	2.112
323.15 K, x1 = 0.6017	914.19	2.302
323.15 K, x1 = 0.7011	915.74	2.554
323.15 K, x1 = 0.7968	917.51	2.876
323.15 K, x1 = 0.9005	919.9	3.346
328.15 K, x1 = 0.101	907.2	1.639
328.15 K, x1 = 0.201	907.12	1.65
328.15 K, x1 = 0.296	907.33	1.711
328.15 K, x1 = 0.3962	907.88	1.791
328.15 K, x1 = 0.5016	908.73	1.908
328.15 K, x1 = 0.6017	909.87	2.063
328.15 K, x1 = 0.7011	911.39	2.268
328.15 K, x1 = 0.7968	913.16	2.527
328.15 K, x1 = 0.9005	915.56	2.906
333.15 K, x1 = 0.101	903.08	1.514
333.15 K, x1 = 0.201	902.92	1.521
333.15 K, x1 = 0.296	903.08	1.569
333.15 K, x1 = 0.3962	903.59	1.635
333.15 K, x1 = 0.5016	904.4	1.732
333.15 K, x1 = 0.6017	905.5	1.858
333.15 K, x1 = 0.7011	907	2.023
333.15 K, x1 = 0.7968	908.75	2.233
333.15 K, x1 = 0.9005	911.17	2.54
